Source: patent US7151200B2, “Histamine receptor H3 modified transgenic mice” (Ortho-McNeil Pharmaceutical, Inc., priority 2001, dated 2006)
Entries after “also recorded” stand apart in the source; their conditions may differ. Where two headings read alike, the source gives them in different places.

Legend:
H3 receptor [1] = details: for binding detected: mouse brain homogenates (H3−/− by context), even at high (>100 nM) concentrations; for Kd: read-out: binding affinity, whole brain homogenates
Description: The mice were sacrificed by gas (CO2) and decapitated immediately. Brains were removed stored at −80° C. until use. The forebrain and the cerebellum tissue homogenized with a polytron in ice-cold 50 mM Na/K phosphate buffer, pH 7.5. The homogenates were centrifuged twice at 50,000×g for twenty minutes at 4° C.
The histamine H3 receptor binding was assayed by a modification of the method of Arrang et al. (1983) supra. Briefly, to examine inhibition curves, 0.4 ml aliquots of the suspensions (10 mg weight tissue) were incubated for sixty minutes at 25° C. with 1.5 nM [^3H]-R-alpha-MeHA. Specific binding was defined as that inhibited by 10 μM thioperamide. That reaction was terminated by addition of 5 ml of the ice-cold buffer and rapid filtration on a glass fiber filter (GF/B) pre-coated with 0.3% polyethyleneimine (Bruns et al., 1983). The filters were washed three times with 5 ml volumes of the ice-cold buffer, and the radioactivity trapped on the filters was counted in 10 ml of ScintiVerse (Fisher Scientific).

H3+/+ and H3−/− mice = test: Step-through passive avoidance test with scopolamine-induced amnesia; format: in vivo, mouse; details: scopolamine 0.75 mg/kg i.p. before first exposure, retest next day
Source text: The apparatus consisted of two compartments; one (9.5×18.5×16 cm) being surrounded by a white wall and illuminated by a 60 watt lamp, and the other (9.5×18.5×16 cm) being dark surrounded by a black wall. The compartments were separated by a guillotine door (4.5 5 4.5 cm). All the mice were habituated to the dark chamber for sixty minutes prior to the test. On the first day of the passive avoidance test, wild-type and knockout mice were divided into two groups. One group of each genotype was injected with scopolamine (0.75 mg/kg, i.p., thirty minutes before the session) while the other groups were injected with biological saline, 0.9% (w/v) NaCl, ([…], i.p.). The mice were placed into the illuminated safe compartment for thirty seconds before being given free access to the dark box. The mice tended to escape into the dark compartment. When all four paws were on the grid floor of the dark compartment, a scrambled constant current foot shock (1 mA, constant voltage 120 V, 50 Hz) was delivered to the grid for one second. Then the mice were returned to their home cages. Twenty-four hours later, the procedure, without the electric shock, was repeated. The time that elapsed before each mouse entered the dark compartment was measured.

H3 receptor [2] = format: in vivo, mouse
Description: Individually housed animals were maintained on a 12:12 light/dark (LD) cycle except in one study when the animals were transferred to constant darkness (DD). At three months of age, animals were implanted under deep anesthesia (ketamine 100 mg/kg and xylamine 10 mg/kg administered intraperitoneally) with EEG and EMG electrodes for sleep monitoring, and intraperitoneal biotelemetry transducers for the recording of body temperature and total locomotor activity. Two weeks after surgery and habituation to the recording chamber, body temperature and locomotor activity were monitored in baseline conditions for two consecutive days. In order to test the functional activity of H3 receptors, the effects of the H3 receptor antagonist thioperamide on sleep-wake states were examined. Mice were injected with saline one day, and thioperamide the next day. Injections occurred at the onset of the light phase and sleep EEG was recorded for the next six hours. A second group of H3+/+ and H3−/− mice were placed in running wheel cages at three months of age. Locomotor activity was recorded for three weeks under LD12:12 conditions and then the animals were transferred to constant darkness for two weeks.

[3] = H3+/+ mice, two-hour post injection period

In the case of `[3H]CNCCc1cnc[nH]1` [^3H-N-α-methylhistamine], the binding detected (H3 receptor [1]) is reported as “No binding could be detected”.
`NCCc1cnc[nH]1` [^3H-histamine] was tested, and the binding detected (H3 receptor [1]) was “No binding could be detected”.
For `CN1[C@@H]2C[C@@H](OC(=O)[C@H](CO)c3ccccc3)C[C@H]1[C@@H]1O[C@@H]12` [scopolamine], the “recall of aversive stimulus (amnesic effect) in passive avoidance” value (H3+/+ and H3−/− mice; H3+/+ mice) was “failed to recall the aversive stimulus” and the “response to amnesic effect in passive avoidance” value (H3+/+ and H3−/− mice; H3−/− mice) was “decreased sensitivity; also recorded: completely unresponsive to the amnesic effects”.
In the case of `S=C(NC1CCCCC1)N1CCC(c2cnc[nH]2)CC1` [thioperamide], the increase in waking (H3 receptor [2]; H3+/+ mice, first two hours after administration at lights on) is reported as 55%, the “decrease in non-rapid eye movement (NREM) sleep” value (H3 receptor [2]; [3]) is reported as 61% and the “effect on REM sleep” value (H3 receptor [2]; [3]) is reported as “not affected”. The “effects on sleep-wake status” value (H3 receptor [2]; H3−/− mice) was “no effects; also recorded: insensitive”.
